Measured values reported in patent publication US11584714B2 (priority 2018, dated 2023).
Where a name gives a salt, the structure may show the parent alone. Read-outs that look alike come from different tables or passages of the source.

What was measured:
Format in all cases: biochemical
mMASP-2 = mMASP-2 (Mus musculus (Mouse), UniProt Q91WP0); test: Enzymatic inhibition of mMASP-2; conditions: read-out: mMASP-2 Ki
MASP-2 (CCP1-CCP2-SP) = MASP-2 (CCP1-CCP2-SP) (Homo sapiens (Human), UniProt O00187); test: biochemical
human α-thrombin = human α-thrombin (Homo sapiens (Human), UniProt P00734); test: Enzymatic assay for thrombin (Boc-VPR-AMC substrate)
[1] = selectivity for MASP-2 inhibition versus thrombin
[2] = MASP-2 inhibition versus thrombin

mMASP-2, sequence (Q91WP0 20-685): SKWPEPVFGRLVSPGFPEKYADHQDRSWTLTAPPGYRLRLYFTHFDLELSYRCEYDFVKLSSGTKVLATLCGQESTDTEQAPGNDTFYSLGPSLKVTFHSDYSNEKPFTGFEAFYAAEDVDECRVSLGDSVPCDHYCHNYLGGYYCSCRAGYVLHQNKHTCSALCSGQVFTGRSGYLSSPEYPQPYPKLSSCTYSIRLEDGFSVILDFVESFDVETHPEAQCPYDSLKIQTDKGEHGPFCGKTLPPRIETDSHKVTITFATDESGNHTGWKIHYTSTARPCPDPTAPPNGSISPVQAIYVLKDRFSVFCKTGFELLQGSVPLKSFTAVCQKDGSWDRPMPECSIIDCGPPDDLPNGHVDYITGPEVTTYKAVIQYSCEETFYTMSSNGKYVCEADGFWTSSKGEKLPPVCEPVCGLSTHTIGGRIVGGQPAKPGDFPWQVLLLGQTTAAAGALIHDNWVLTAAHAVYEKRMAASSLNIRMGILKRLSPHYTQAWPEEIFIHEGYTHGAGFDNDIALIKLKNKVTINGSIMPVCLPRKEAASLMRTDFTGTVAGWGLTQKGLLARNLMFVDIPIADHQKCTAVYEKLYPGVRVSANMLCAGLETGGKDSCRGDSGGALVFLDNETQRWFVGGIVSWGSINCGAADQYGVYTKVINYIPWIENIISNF
MASP-2 (CCP1-CCP2-SP), sequence (O00187 445-686): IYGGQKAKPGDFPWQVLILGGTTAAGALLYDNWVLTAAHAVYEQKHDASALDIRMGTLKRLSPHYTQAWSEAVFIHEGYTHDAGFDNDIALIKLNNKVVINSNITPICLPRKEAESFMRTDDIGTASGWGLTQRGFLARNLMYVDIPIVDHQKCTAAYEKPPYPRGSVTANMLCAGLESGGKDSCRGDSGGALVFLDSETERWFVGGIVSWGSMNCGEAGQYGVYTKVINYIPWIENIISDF

Structure (SMILES) | Ki (mMASP-2) [µM] | Ki (MASP-2 (CCP1-CCP2-SP); read-out: MASP-2 Ki) [µM] | Ki (human α-thrombin; read-out: Thrombin Ki) [µM] | Ki (MASP-2 (CCP1-CCP2-SP)) [µM] | MASP-2 vs. thrombin selectivity (MASP-2 (CCP1-CCP2-SP); [1]) | Ki (human α-thrombin; Thrombin Ki (μM)) [µM] | MASP-2 vs. thrombin selectivity (MASP-2 (CCP1-CCP2-SP); [2])
CCOC(=O)CCCN1CC[C@H](c2ccccc2)C[C@@H]1C(=O)N[C@@H](C)C(=O)NCc1ccc(N)nc1C [compound 1440, Ethyl 4-((2R,4S)-2-(((S)-1-(((6-amino-2-methylpyridin-3-yl)methyl)amino)-1-oxopropan-2-yl)carbamoyl)-4-phenylpiperidin-1-yl)butanoate] | 2.5 to 10 | < 0.5 | > 25 |  |  |  | 
C[C@H](NC(=O)[C@H]1C[C@H](c2ccccc2)CN1)C(=O)NCc1ccc2nccn2c1 [compound 1434, (2R,4R)—N—((S)-1-((Imidazo[1,2-a]pyridin-6-ylmethyl)amino)-1-oxopropan-2-yl)-4-phenylpyrrolidine-2-carboxamide Dihydrochloride] | 10 to 25 |  | > 25 | 10 to 25 |  |  | 
C[C@H](NC(=O)[C@H]1C[C@H](c2ccccc2)CN1)C(=O)NCc1ccc2c(N)noc2c1 [compound 1390, (2R,4R)—N—((S)-1-(((3-Aminobenzo[d]isoxazol-6-yl)methyl)amino)-1-oxopropan-2-yl)-4-phenylpyrrolidine-2-carboxamide Di-trifluoroacetate salt] | > 25 |  | > 25 | 2.5 to 10 |  |  | 
C[C@H](NC(=O)[C@H]1C[C@H](c2ccccc2)CN1)C(=O)NCc1cc(Cl)ccc1-n1ncnn1 [compound 1394, (2R,4R)—N—((S)-1-((5-chloro-2-(2H-tetrazol-2-yl)benzyl)amino)-1-oxopropan-2-yl)-4-phenylpyrrolidine-2-carboxamide Trifluoroacetate] | > 25 |  |  | 2.5 to 10 | * (≥1.0 to <5.0-fold) | 10 to 25 | 
Cc1cc(Cl)cc(CNC(=O)[C@H](C)NC(=O)[C@H]2C[C@H](c3ccccc3)CN2)c1 [compound 1333, (2R,4R)—N—((S)-1-((3-Chloro-5-methylbenzyl)amino)-1-oxopropan-2-yl)-4-phenylpyrrolidine-2-carboxamide Hydrochloride] | 10 to 25 |  | > 25 | 2.5 to 10 |  |  | 
C[C@H](NC(=O)[C@H](N)CCc1cccc(F)c1)C(=O)NCc1ccc(C(=N)N)cc1 [compound 1048] | < 0.5 | < 0.5 | < 0.5 |  |  |  | ** (5.0 to 25-fold)
Cc1nc(N)ccc1CNC(=O)[C@H](C)NC(=O)[C@H]1C[C@H](Cc2ccc(Cc3ccccc3)cc2)CN1 [compound 1427, (2R,4S)—N—((S)-1-(((6-Amino-2-methylpyridin-3-yl)methyl)amino)-1-oxopropan-2-yl)-4-(4-benzylbenzyl)pyrrolidine-2-carboxamide di-trifluoroacetate salt] | < 0.5 | < 0.5 | > 25 |  | **** (≥100-fold) |  | 
C[C@H](NC(=O)[C@H](N)CCc1ccccc1)C(=O)NCc1cc(Cl)ccc1CO [compound 1287, (R)-2-amino-N—((S)-1-((5-Chloro-2-(hydroxymethyl)benzyl)amino)-1-oxopropan-2-yl)-4-phenylbutanamide] | > 25 |  | > 25 | 10 to 25 |  |  | 
C[C@H](NC(=O)[C@H](N)CCc1ccccc1)C(=O)NCc1cc(Br)ccc1O [compound 1279, (R)-2-amino-N—((S)-1-((5-bromo-2-hydroxybenzyl)amino)-1-oxopropan-2-yl)-4-phenylbutanamide] | > 25 |  |  | 0.5 to 2.5 | ** (≥5.0 to <25-fold) | 2.5 to 10 | 
C[C@H](NC(=O)[C@@H](CCc1ccccc1)NCCc1ccccc1)C(=O)NCc1ccc(C(=N)N)cc1 [compound 1340, (R)—N—((S)-1-((4-Carbamimidoylbenzyl)amino)-1-oxopropan-2-yl)-2-(phenethylamino)-4-phenylbutanamide Dihydrochloride] | < 0.5 | < 0.5 | < 0.5 |  | ** (≥5.0 to <25-fold) |  | 
C[C@H](NC(=O)[C@H](N)Cc1cccc2ccccc12)C(=O)NCc1ccc(C(=N)N)cc1 [compound 1092] | < 0.5 | < 0.5 | < 0.5 |  |  |  | −− (less than 1.0-fold)
C[C@H](NC(=O)[C@@H](CCc1ccccc1)NCc1ccc(OCCO)cc1)C(=O)NCc1ccc(C(=N)N)cc1 [compound 1236, (R)—N—((S)-1-((4-Carbamimidoylbenzyl)amino)-1-oxopropan-2-yl)-2-((4-(2-hydroxyethoxy)benzyl)amino)-4-phenylbutanamide] | < 0.5 | < 0.5 | < 0.5 |  | * (≥1.0 to <5.0-fold) |  | 
C[C@H](NC(=O)[C@H]1C[C@H](Cc2ccccc2)CN1)C(=O)NCc1cc2cnccc2[nH]1 [compound 1472, (2R,4S)—N—((S)-1-(((1H-Pyrrolo[3,2-c]pyridin-2-yl)methyl)amino)-1-oxopropan-2-yl)-4-benzylpyrrolidine-2-carboxamide Di-trifluoroacetate salt] | < 0.5 | < 0.5 |  |  | **** (≥100-fold) | 2.5 to 10 | 
C[C@H](NC(=O)[C@H]1C[C@H](c2ccccc2)CN1)C(=O)NCc1cc(O)cc(Cl)c1 [compound 1364, (2R,4R)—N—((S)-1-((3-Chloro-5-hydroxybenzyl)amino)-1-oxopropan-2-yl)-4-phenylpyrrolidine-2-carboxamide Hydrochloride] | 10 to 25 |  | > 25 | 0.5 to 2.5 |  |  | 
C[C@H](NC(=O)[C@H](N)C/C=C/c1ccccc1)C(=O)NCc1ccc(N)nc1 [compound 1261, (R, E)-2-Amino-N—((S)-1-(((6-aminopyridin-3-yl)methyl)amino)-1-oxopropan-2-yl)-5-phenylpent-4-enamide] | 10 to 25 |  | > 25 | 10 to 25 | * (≥1.0 to <5.0-fold) |  | 
CCc1cccc([C@H]2CN[C@@H](C(=O)N[C@@H](C)C(=O)NCc3ccc(N)nc3C)C2)c1 [compound 1303, (2R,4S)—N—((S)-1-(((6-Amino-2-methylpyridin-3-yl)methyl)amino)-1-oxopropan-2-yl)-4-(3-ethylphenyl)pyrrolidine-2-carboxamide Dihydrochloride] | 2.5 to 10 | < 0.5 | > 25 |  | *** (≥25 to <100-fold) |  | 
Cc1ccc([C@@H]2CCN[C@@H](C(=O)N[C@@H](C)C(=O)NCc3ccc(C(=N)N)cc3)C2)cc1 [compound 1248, (2R,4R)—N—((S)-1-((4-Carbamimidoylbenzyl)amino)-1-oxopropan-2-yl)-4-(p-tolyl)piperidine-2-carboxamide] | < 0.5 | < 0.5 |  |  | ** (≥5.0 to <25-fold) | 0.5 to 2.5 | 
CN[C@H](CCc1ccccc1)C(=O)N[C@@H](C)C(=O)NCc1ccc(C(=N)N)cc1 [compound 1044] | < 0.5 | < 0.5 | < 0.5 |  |  |  | ** (5.0 to 25-fold)
Cc1nc(N)ccc1CNC(=O)[C@H](C)NC(=O)[C@H]1C[C@@H](c2ccccc2)CCN1CCCCCC(=O)O [compound 1412, 6-((2R,4S)-2-(((S)-1-(((6-Amino-2-methylpyridin-3-yl)methyl)amino)-1-oxopropan-2-yl)carbamoyl)-4-phenylpiperidin-1-yl)hexanoic acid Trifluoroacetate salt] | 2.5 to 10 | < 0.5 | > 25 |  |  |  | 
Cc1cc(Cl)cc(CNC(=O)[C@H](C)NC(=O)[C@H]2CN(c3cccc4ccccc34)CCN2)c1O [compound 1317, (R)—N—((S)-1-((5-Chloro-2-hydroxy-3-methylbenzyl)amino)-1-oxopropan-2-yI)-4-(naphthalen-1-yl)piperazine-2-carboxamide Hydrochloride] | 0.5 to 2.5 | < 0.5 | > 25 |  |  |  | 
Cc1nc(N)ccc1CNC(=O)[C@H](C)NC(=O)[C@H]1C[C@H](c2ccccc2)CN1 [compound 1265, (2R,4R)—N—((S)-1-(((6-Amino-2-methylpyridin-3-yl)methyl)amino)-1-oxopropan-2-yl)-4-phenylpyrrolidine-2-carboxamide] | 2.5 to 10 | < 0.5 | > 25 |  | **** (≥100-fold) |  | 
C[C@H](NC(=O)[C@@H](CCc1ccccc1)NCc1ccccc1)C(=O)NCc1ccc(C(=N)N)cc1 [compound 1134] | < 0.5 | < 0.5 | < 0.5 |  |  |  | −− (less than 1.0-fold)
CCCCCN[C@H](CCc1ccccc1)C(=O)N[C@@H](C)C(=O)NCc1ccc(C(=N)N)cc1 [compound 1125] | < 0.5 | < 0.5 | < 0.5 |  |  |  | −− (less than 1.0-fold)
Cc1nc(N)ccc1CNC(=O)[C@H](C)NC(=O)[C@@H](CCc1ccccc1)NCCCc1cccc(O)c1 [compound 1319, (R)—N—((S)-1-(((6-Amino-2-methylpyridin-3-yl)methyl)amino)-1-oxopropan-2-yl)-2-((3-(3-hydroxyphenyl)propyl)amino)-4-phenylbutanamide Dihydrochloride salt] | 10 to 25 | < 0.5 |  |  | ** (≥5.0 to <25-fold) | 2.5 to 10 | 
Cc1nc(N)ccc1CNC(=O)[C@H](C)NC(=O)[C@H]1CN(c2cccc3ccccc23)CCN1 [compound 1309, (R)—N—((S)-1-(((6-Amino-2-methylpyridin-3-yl)methyl)amino)-1-oxopropan-2-yl)-4-(naphthalen-1-yl)piperazine-2-carboxamide Dihydrochloride] | < 0.5 | < 0.5 | > 25 |  | **** (≥100-fold) |  | 
Cc1nc2cc(CNC(=O)[C@H](C)NC(=O)[C@H]3C[C@H](c4ccccc4)CN3)cc(Cl)c2[nH]1 [compound 1418, (2R,4R)—N—((S)-1-(((7-Chloro-2-methyl-1H-benzo[d]imidazol-5-yl)methyl)amino)-1-oxopropan-2-yl)-4-phenylpyrrolidine-2-carboxamide Trifluoroacetate salt] | 10 to 25 |  | > 25 | 2.5 to 10 |  |  | 
